From patent US8946302B2, “Selective sigma-1 receptor ligands” (Wisconsin Alumni Research Foundation, priority 2008, dated 2015)
Where two headings read alike, the source gives them in different places. Marks after values point to notes of the source that are not given here.

Key:
sigma-1 receptor [1] = molecular target: T1, sigma-1 receptor (Cavia porcellus, UniProt Q60492); assay: Competition assay against (+)-[3H]-pentazocine, trace amines; format: binding; design: from tissue; details: for sigma-2/sigma-1 Kd ratio: sigma-2 KD / sigma-1 KD
Protocol: (§1) Competitive binding assays were performed as previously described (18) with the exception of testing new ligands shown in Table 4.

Kv 1.4 K+ channel = molecular target: T2, Kv 1.4 K+ channel (Rattus norvegicus, UniProt P15385); assay: Whole cell patch clamp of Kv 1.4 K+ channel co-expressed with sigma-1 receptor in HEK-293 cells; format: cell-based; details: concentrations up to 300 μM, HEK-293
T2 construct: expressed in transfected cells; host or cells: HEK-293, transient, pIRES KvS1R plus pEGFP
Protocol: After transfection (36-48 hours), whole cell K^+ currents were recorded from GFP positive HEK cells under voltage clamp using standard patch clamp techniques, using patch pipettes filled with (in mM) 120 KCl, 10 NaCl, 10 EGTA, 2 MgCl2, 2-4 MgATP, 0.3 NaGTP, 10 HEPES, pH 7.3.
The external solution was composed of (in mM) 130 NaCl, 4 KCl, 2 CaCl2, 1 MgCl2, 10 HEPES, pH 7.4 at room temperature (22-24° C.). Patch pipettes with resistances from 1-3 MΩ were fabricated from borosilicate glass (Garner Glass Co., CA). K^+ channels were activated by voltage step from −120 mV to 20 mV for 250 ms. Axopatch 200B, patch clamp amplifier interfaced to a PC running PCLAMP 7 (Axon Instruments) was used for data acquisition. Drugs were applied by a gravity feed system at a flow rate of 1-3 mL/minute. Series resistance compensation was used for cells with series resistance values higher than 10 MΩ. A 80-90% series resistance compensation was achieved on such cells.
K^+ currents were recorded using whole cell patch clamp technique.

[2] = molecular target: T3, purified sigma-1 receptor (Cavia porcellus, UniProt Q60492); assay: Competitive displacement of [3H]-(+)-pentazocine at the pure sigma-1 receptor; format: binding, guinea pig; details: [3H]-(+)-pentazocine 10 nM, read-out: Ki Pure σ-1R
T3 construct: made in house; host or cells: E. coli BL21 DE3
Protocol: A guinea pig sigma-1 receptor was purified as previously described (Ramachandran et al., Protein Expr. Purif., 2007. 51(2): 283-92). The pMal P2X plasmid (New England Biolabs) encoding the guinea pig sigma-1 receptor on the C-terminus of the E. coli Maltose Binding Protein was used for purification. The sigma-1 receptor on its C-terminus carried a hexa-histadine epitope tag. Protein was expressed in the E. coli strain BL21 DE3 (Novagen) with 0.6 mM IPTG. The E. coli pellet was sonicated and centrifuged at 100,000 g for 1 hour to separate the particulate and soluble fractions. The particulate fraction was extracted with Triton X-100, centrifuged and the extract was loaded onto an amylose resin (New England Biolabs, E-802). After washing the resin with buffer containing 0.5% Triton X-100, the MBP-sigma-1 receptor fusion protein was eluted with buffer containing 10 mM maltose.
The MBP-sigma-1-receptor fusion protein was cleaved with Factor Xa protease (Novagen) at room temperature for 24-48 hours and the cleavage was monitored with SDS-polyacrylamide gel electrophoresis. The sigma-1 receptor from the Factor Xa cleavage was purified with a HIS-Select HC Nickel affinity gel (Sigma-Aldrich P6611) in a batch format. The resin was washed with buffer containing 0.5% Triton X-100 detergent and the beads were separated by a brief centrifugation at 4000 rpm in a microcentrifuge. After washing to remove MBP, the pure sigma-1 receptor was eluted in buffer containing 250 mM imidazole.
To remove the undigested MBP-sigma-1 receptor fusion protein that is carried over in the Ni^2+ purification, the eluate from the Ni^2+ purification was incubated with Anti-MBP antibody conjugated to agarose (Vector Laboratories, Burlingame, Calif.) at 4° C. for 18-24 hours. The beads were separated by centrifugation and the supernatant contained the pure sigma-1 receptor.
Competition ligand binding to the pure sigma-1 receptor was performed as previously described. […] After incubation at 30° C. for 60 minutes, the reaction was terminated by rapid filtration through glass fiber filters (Whatman GF/B), using a Brandel cell harvester (Brandel, Gaithersburg, Md.). The glass fiber filters were pre-soaked in 0.5% polyethyleneimine (PEI) for at least 1 hour at room temperature (˜23° C.). Filters were washed 4 times with 4 mL of ice-cold 50 mM Tris-C1, pH 8.0. Radioactivity was quantified by liquid scintillation counting using a Packard model 1600 CA scintillation counter.

sigma-1 receptor [3] = molecular target: sigma-1 receptor (Homo sapiens, UniProt Q99720); details: literature value; cited from earlier work
sigma-1 receptor [4] = molecular target: T4, sigma-1 receptor (Rattus norvegicus, UniProt Q9R0C9); assay: Protection of [125I]-IACoc photolabeling in rat liver membranes; format: binding; details: even at 50 and 100 μM
T4 construct: from tissue; host or cells: rat liver membranes
Protocol: (§3) Rat liver membranes (100 μg/lane) were suspended in the presence or absence of the protecting drugs. […] Percent band intensities are shown compared to controls performed in the absence of protecting ligand (−).

sigma-2 receptor [5] = molecular target: T5, sigma-2 receptor (Rattus norvegicus, UniProt Q5U3Y7); assay: Protection of [125I]IAF photolabeling of the sigma-2 receptor in rat liver membranes; format: binding; design: from tissue; host or cells: rat liver membranes
T5 sequence (Q5U3Y7 1-176): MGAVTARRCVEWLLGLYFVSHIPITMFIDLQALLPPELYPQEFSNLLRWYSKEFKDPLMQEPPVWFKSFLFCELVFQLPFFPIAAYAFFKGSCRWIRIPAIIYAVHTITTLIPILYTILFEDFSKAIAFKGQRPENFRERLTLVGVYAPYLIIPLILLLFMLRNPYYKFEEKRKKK
Protocol: as §3

sigma-2 receptor [6] = molecular target: T5, sigma-2 receptor; assay: Sigma-2 receptor competitive binding, trace amines; design: from tissue; host or cells: liver membranes (rat inferred); details: read-out: Sigma-2R KD
Protocol: as §1

HT-29 = assay: Cytotoxicity assay HT-29; format: cell-based; details: Homo sapiens, HU Colorectal, read-out: IC50 (SE) growth inhibition
Protocol: (§2) Multi-plex cytotoxicity assays were performed by the Keck-UWCCC Small Molecule Screening Facility (Madison, Wis.). Specific methodology can be found online at http://hts.wisc.edu/Resources.htm#mpa.

SKOV-3 = assay: Cytotoxicity assay SKOV-3; format: cell-based; details: Homo sapiens, SK-OV-3, HU Ovarian, read-out: IC50 (SE) growth inhibition
Protocol: as §2

MCP10A = assay: Cytotoxicity assay MCP10A; format: cell-based; details: Homo sapiens, HU Breast, read-out: IC50 (SE) growth inhibition
Protocol: as §2

sigma-2 receptor [7] = molecular target: T5, sigma-2 receptor; design: from tissue; host or cells: rat liver membranes; details: from Fontanilla et al. Biochemistry 2008; cited from earlier work
MCF7 = assay: Cytotoxicity assay MCF7; format: cell-based; details: Homo sapiens, HU Breast, read-out: IC50 (SE) growth inhibition
Protocol: as §2

SF268 = assay: Cytotoxicity assay SF268; format: cell-based; details: Homo sapiens, SF-268, HU CNS, read-out: IC50 (SE) growth inhibition
Protocol: as §2

HI299 = assay: Cytotoxicity assay HI299; format: cell-based; details: Homo sapiens, HU Lung, read-out: IC50 (SE) growth inhibition
Protocol: as §2

MB-MDA-231 = assay: Cytotoxicity assay MB-MDA-231; format: cell-based; details: Homo sapiens, HU Breast, read-out: IC50 (SE) growth inhibition
Protocol: as §2

HCT-45 = assay: Cytotoxicity assay HCT-45; format: cell-based; details: Homo sapiens, HU Colorectal, read-out: IC50 (SE) growth inhibition
Protocol: as §2

NCI-H460 = assay: Cytotoxicity assay NCI-H460; format: cell-based; details: Homo sapiens, HU lung, read-out: IC50 (SE) growth inhibition
Protocol: as §2

Du145 = assay: Cytotoxicity assay Du145; format: cell-based; details: Homo sapiens, DU-145, HU Prostate, read-out: IC50 (SE) growth inhibition
Protocol: as §2

A549 = assay: Cytotoxicity assay A549; format: cell-based; details: Homo sapiens, HU lung, read-out: IC50 (SE) growth inhibition
Protocol: as §2

sigma-1 receptor [8] = molecular target: T1, sigma-1 receptor; design: from tissue; host or cells: guinea pig liver membranes; details: from Fontanilla et al. Biochemistry 2008; cited from earlier work
tumor cell lines = assay: Cytotoxicity assays, various tumor cell lines (statements in words); format: cell-based, human
Protocol: Because sigma-1 receptors are overexpressed in numerous tumor cell lines, which include breast cancer, lung carcinoma, renal carcinoma, colon carcinoma, sarcoma, brain tumors, melanoma, glioblastoma, neuroblastoma, and prostate cancer, the ability of the compounds to inhibit the growth of various tumor cell lines were tested.
as §2

sigma-2 receptor [9] = molecular target: sigma-2 receptor (Homo sapiens, UniProt Q5BJF2); details: literature value; cited from earlier work
[10] = tested on: WT and sigma-1 receptor knockout mice; assay: Open-field hypermobility assay in WT and sigma-1 receptor KO mice; format: in vivo, mouse; details: WT and KO mice, 3 mg/kg i.p.
Protocol: All mice were maintained on a normal light/dark cycle and handled in accordance with Animal Care and Use Guidelines of the University of Wisconsin, Madison. […] Mice were first acclimatized to the experimental room for one hour. WT and KO mice were injected with the monoamine oxidase inhibitor, pargyline (75 mg/kg, i.p.) two hours prior to DMT or vehicle injection(28). […] Each condition represents 8 to 14 mice (n=8-14). […] A computer program was used to quantitate movement and after each experiment, 70% ethanol was used to remove odors from the open-field.

T1 sequence (Q60492 whole entry): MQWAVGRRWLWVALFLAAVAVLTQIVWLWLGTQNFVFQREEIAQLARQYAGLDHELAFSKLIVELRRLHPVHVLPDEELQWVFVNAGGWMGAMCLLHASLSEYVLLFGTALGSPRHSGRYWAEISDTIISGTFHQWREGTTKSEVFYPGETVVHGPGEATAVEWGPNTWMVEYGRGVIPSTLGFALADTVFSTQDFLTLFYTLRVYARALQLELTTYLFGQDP
Chain of sigma-1 receptor (Homo sapiens, UniProt Q99720) (Q99720 whole entry, species assumed): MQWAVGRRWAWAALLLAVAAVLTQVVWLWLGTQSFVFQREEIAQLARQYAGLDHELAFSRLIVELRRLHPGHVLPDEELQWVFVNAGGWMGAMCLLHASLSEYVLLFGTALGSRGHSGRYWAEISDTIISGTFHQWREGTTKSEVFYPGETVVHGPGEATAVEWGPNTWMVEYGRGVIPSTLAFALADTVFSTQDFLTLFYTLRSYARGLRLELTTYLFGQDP
T2 sequence (Q9R0C9 whole entry partner): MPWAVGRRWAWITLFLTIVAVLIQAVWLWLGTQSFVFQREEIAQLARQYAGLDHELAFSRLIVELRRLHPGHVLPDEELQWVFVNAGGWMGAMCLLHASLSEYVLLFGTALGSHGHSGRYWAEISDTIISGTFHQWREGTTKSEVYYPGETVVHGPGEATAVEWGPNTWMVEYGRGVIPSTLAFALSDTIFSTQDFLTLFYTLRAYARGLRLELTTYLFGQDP
T2 sequence (P15385 whole entry): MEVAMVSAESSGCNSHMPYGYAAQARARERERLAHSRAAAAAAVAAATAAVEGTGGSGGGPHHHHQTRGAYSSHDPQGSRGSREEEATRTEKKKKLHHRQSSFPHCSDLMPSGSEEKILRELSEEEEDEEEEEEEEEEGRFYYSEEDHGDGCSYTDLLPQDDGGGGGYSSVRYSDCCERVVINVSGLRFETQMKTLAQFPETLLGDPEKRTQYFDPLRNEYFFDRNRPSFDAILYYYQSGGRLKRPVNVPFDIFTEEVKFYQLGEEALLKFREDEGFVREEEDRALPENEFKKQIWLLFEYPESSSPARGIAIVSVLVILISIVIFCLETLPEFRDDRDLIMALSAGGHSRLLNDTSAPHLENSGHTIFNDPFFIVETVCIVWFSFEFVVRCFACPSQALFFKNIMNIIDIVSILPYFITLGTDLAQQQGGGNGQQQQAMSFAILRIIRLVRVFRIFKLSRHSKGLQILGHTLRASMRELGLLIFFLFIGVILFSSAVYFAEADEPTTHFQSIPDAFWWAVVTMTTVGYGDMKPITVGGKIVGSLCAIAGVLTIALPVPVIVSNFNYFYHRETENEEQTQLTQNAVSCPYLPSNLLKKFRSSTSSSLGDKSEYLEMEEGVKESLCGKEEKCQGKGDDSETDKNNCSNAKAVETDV
T4 sequence (Q9R0C9 whole entry): as the sequence (Q9R0C9 whole entry partner) above
T3 sequence (Q60492 whole entry): as the sequence (Q60492 whole entry) above
Chain of sigma-2 receptor (Homo sapiens, UniProt Q5BJF2) (Q5BJF2 whole entry, species assumed): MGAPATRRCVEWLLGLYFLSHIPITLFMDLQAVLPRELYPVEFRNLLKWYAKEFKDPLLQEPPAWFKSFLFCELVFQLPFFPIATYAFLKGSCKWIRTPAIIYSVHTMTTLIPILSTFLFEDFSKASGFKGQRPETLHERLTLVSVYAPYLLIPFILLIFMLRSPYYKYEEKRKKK

CCCCCCCCN(CCCCCCCC)C(=O)CCc1ccc(F)cc1 [Compound 4, N,N-Dioctyl-3-(4-fluorophenyl)propionamide]
melting point: 190 to 193 °C

CN(C)CCc1ccccc1 [N,N′-dimethylPEA, N,N-dimethyl-2-phenylethylamine]
sigma-2/sigma-1 Kd ratio (sigma-1 receptor [1]): 1.642

CNCCc1ccccc1 [N-methylPEA]
sigma-2/sigma-1 Kd ratio (sigma-1 receptor [1]): 0.366

CCCCN [Butylamine, reference compound]
average inhibition of Kv 1.4 K+ channel (Kv 1.4 K+ channel): 21%
Ki [2]: 477 ± 67.5 µM

COC(=O)C1C(OC(=O)c2ccc(N=[N+]=[N-])c(I)c2)CC2CCC1N2C (stereo not shown) [[^125I]-IACoc, 3-[^125I]iodo-4-azidococaine]
Kd (sigma-1 receptor [3]): 0.000126 µM

NCCc1c[nH]c2ccccc12 [Tryptamine]
Kd (sigma-1 receptor [1]): 432 µM
protection of sigma-1 receptor [125I]-IACoc photolabeling (sigma-1 receptor [4]): protected minimally
protection of [125I]IAF sigma-2 receptor photolabeling (sigma-2 receptor [5]; 10 μM): 47%
protection of [125I]IAF sigma-2 receptor photolabeling (sigma-2 receptor [5]; 50 μM): 78%
protection of [125I]IAF sigma-2 receptor photolabeling (sigma-2 receptor [5]; 100 μM): 79%
Kd (sigma-2 receptor [6]): 4.91 µM

CNCCc1ccc(O)cc1 [N-methyltyramine, 4-(2-(methylamino)ethyl)phenol]
Kd (sigma-2 receptor [6]): 6.61 µM

CCCN(CCCc1ccc(F)cc1)CCc1ccc(N=[N+]=[N-])c(I)c1 [Compound 19]
IC50 (HT-29): 36.4 µM
IC50 (SKOV-3): > 100 µM
IC50 (MCP10A): 86.6 µM
Kd (sigma-2 receptor [7]): 1.29 µM
IC50 (MCF7): 16.8 µM
IC50 (SF268): 38.8 µM
IC50 (HI299): 90.8 µM
IC50 (MB-MDA-231): 21.6 µM
IC50 (HCT-45): 54.1 µM
IC50 (NCI-H460): 40.3 µM
IC50 (Du145): 13.1 µM
IC50 (A549): > 100 µM
Kd (sigma-1 receptor [8]): 7.24 µM
Ratio (σ2/σ1) (sigma-1 receptor [8]): 0.178^c
cytotoxicity / tumor cell growth inhibition (tumor cell lines): non-specifically cytotoxic in almost all the cell lines tested

CC1CN(CCCc2ccc(N=[N+]=[N-])c([125I])c2)CC(C)O1 (stereo not shown) [[^125I]IAF, 1-N-(2′,6′-dimethyl-morpholino)-3-(4-azido-3-[^125I]iodo-phenyl)propane]
Kd (sigma-2 receptor [9]): 2.78 µM
Kd (sigma-1 receptor [3]): 0.194 µM

CN[C@@H](C)Cc1ccccc1 [methamphetamine]
hypermobility [10]: induced hypermobility in both WT and KO mice
